Source: PMC6478789, “A chemical toolbox for the study of bromodomains and epigenetic signaling” (Nature Communications, 2019)
Where two headings read alike, the source gives them in different places.

Assays:
CBP/p300 over BRD4 = conditions: cited from earlier work
CBP/p300 [1] = target: CBP/p300; parameters: method as in ref 10 (suppl.); conditions: ref 10 (suppl.); read-out: BRET (KD (nM) column); cited from earlier work
CBP/p300 [2] = target: CBP/p300; parameters: method as in ref 10 (suppl.); conditions: ref 10 (suppl.); read-out: TR-FRET (KD (nM) column); cited from earlier work
HAT1 = target: T1, HAT1 (Homo sapiens, UniProt O14929); test: Histone acetyltransferase (HAT) activity assay; assay type: biochemical;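 further: HAT selectivity screen of BRD probe compounds, enzyme activity in % measured with compound at 1 µM and 10 µM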
T1 sequence (O14929 1-419): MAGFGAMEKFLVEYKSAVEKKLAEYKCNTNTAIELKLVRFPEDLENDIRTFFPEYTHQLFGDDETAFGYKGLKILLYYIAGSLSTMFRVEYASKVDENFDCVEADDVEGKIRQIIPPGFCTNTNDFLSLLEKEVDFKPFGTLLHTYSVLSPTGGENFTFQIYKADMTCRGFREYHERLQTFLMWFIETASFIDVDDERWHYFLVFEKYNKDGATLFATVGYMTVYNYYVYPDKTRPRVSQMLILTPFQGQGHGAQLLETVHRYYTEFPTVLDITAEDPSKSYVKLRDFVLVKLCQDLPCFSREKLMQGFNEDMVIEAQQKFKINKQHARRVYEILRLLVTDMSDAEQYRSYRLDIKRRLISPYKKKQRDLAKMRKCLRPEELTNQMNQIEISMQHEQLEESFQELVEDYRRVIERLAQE

three TNBC lines = test: Combinatorial screen of BRD inhibitors with or without BAY-876 (confluency); assay type: cell-based, human; conditions: 3 μM probe + 3 μM BAY-876
Method: Fig. 6 BRD inhibitors leverage metabolic adaptations induced by glucose transporter I (GLUT1) inhibition in TNBC. a BRD inhibitor screening across ten TNBC cell lines. Cells were treated with indicated BRD inhibitors at 3 μM for 7 days. Confluency was measured using an IncuCyte ZOOM live cell imaging device. Data shown are mean ± s.d. of n = 4 independent cell culture grown and treated cells. A two-sided Student’s t test was used to derive the p-values. b SLC2A1 gene expression in the The Cancer Genome Atlas (TCGA) breast datasets. The cohorts were divided into TNBCs (red) and non-TNBCs (blue) according to PAM50 classification. Gene expression is reported as median-centered expression log2 values. The number of patients (n) per group is indicated. P-values were determined using a Wilcoxon's rank-sum test. c Glucose uptake in MDA-MB-436 cells in response to BAY-876 treatment relative to vehicle. MDA-MB-436 cells were treated with dimethyl sulfoxide (DMSO) or 3 µM BAY-876 for 5 days. Graph indicates mean, error bars denote s.d. from three independent assays and p-value was computed using the Benjamini-Hochberg t test; ***p < 0.001. d Effects of BAY-876 treatment on the intracellular acetyl-CoA level. Graph indicates mean, error bars denote s.d. from three independent assays and p-value was computed using the Benjamini-Hochberg t test; ***p < 0.001. e Effects of BAY-876 treatment on intracellular NAD^+/NADH level. Graph indicates the mean, error bars denote s.d. from three independent assays and p-value computed using the Benjamini-Hochberg t test; **p < 0.01. f Immunoblot analysis of H3 and H4 acetylation in MDA-MB-436 cells before and after BAY-876 treatment. P-value computed using the Benjamini-Hochberg t test; ***p < 0.001. g Cell growth effects of BAY-876 treatment on three representative cell lines. n.s. not significant. h Combinatorial screening of BRD inhibitors with or without 3 μM BAY-876 across ten TNBC cell lines. Cell confluency was obtained from the endpoint Incucyte scanning. (Left) Heatmap of the combinatorial screening results; (Right) Cell confluency after treatment with three potential BRDi candidates at 3 μM in the presence or absence of 3 μM BAY-876 in three representative cell lines. Graph indicates mean, error bars denote s.d. from three independent assays and p-values were computed using the Benjamini-Hochberg t test; **p < 0.01; ***p < 0.001. Raw data images are available in Supplementary Fig. 4
TNBC cell lines were seeded in sterile, transparent 384-well plates at 500 cells per well in 50 µl media. Chemical probes were delivered in dimethyl sulfoxide (DMSO). Cell confluency at 7 days was evaluated using an Incucyte ZOOM live cell imaging device (Essen Bioscence) and analyzed with the Incucyte ZOOM (2016A) software based on phase contrast image.

GCN5L2 = GCN5L2 (Homo sapiens, UniProt Q92830); test: Histone acetyltransferase (HAT) activity assay; assay type: biochemical;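 further: selectivity screen of BRD probe compounds across a panel of histone acetyltransferases, HAT activity in % with compound at 1 or 10 µM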
MYST3 = MYST3 (Homo sapiens, UniProt Q92794); test: Histone acetyltransferase (HAT) activity assay; assay type: biochemical;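 further: selectivity screen of bromodomain probe compounds across a panel of histone acetyltransferases, read out as enzyme activity in %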
EP300 = EP300 (Homo sapiens, UniProt Q09472); test: Histone acetyltransferase (HAT) activity assay; assay type: biochemical;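 further: selectivity screen of bromodomain probe compounds against histone acetyltransferases, with enzyme activity given in percent for compounds tested at 1 and 10 µM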
MYST1 = target: T2, MYST1 (Homo sapiens, UniProt Q9H7Z6); test: Histone acetyltransferase (HAT) activity assay; assay type: biochemical;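 further: selectivity screen across a panel of histone acetyltransferases, with compounds tested at 1 and 10 µM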
T2 sequence (Q9H7Z6 1-458): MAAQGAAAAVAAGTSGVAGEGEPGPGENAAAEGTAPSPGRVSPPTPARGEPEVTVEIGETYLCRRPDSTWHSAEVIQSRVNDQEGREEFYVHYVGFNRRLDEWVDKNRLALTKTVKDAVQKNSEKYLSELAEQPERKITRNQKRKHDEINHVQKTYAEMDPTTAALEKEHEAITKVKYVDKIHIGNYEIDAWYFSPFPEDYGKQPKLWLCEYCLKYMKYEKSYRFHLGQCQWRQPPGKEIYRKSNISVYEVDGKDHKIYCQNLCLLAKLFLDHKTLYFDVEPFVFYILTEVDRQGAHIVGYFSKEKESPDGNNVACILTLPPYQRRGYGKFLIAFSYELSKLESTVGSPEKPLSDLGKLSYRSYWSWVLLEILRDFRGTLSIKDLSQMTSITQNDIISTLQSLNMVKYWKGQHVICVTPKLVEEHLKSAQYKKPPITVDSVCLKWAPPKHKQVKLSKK

Sequence of EP300 (Q09472 whole entry, species assumed): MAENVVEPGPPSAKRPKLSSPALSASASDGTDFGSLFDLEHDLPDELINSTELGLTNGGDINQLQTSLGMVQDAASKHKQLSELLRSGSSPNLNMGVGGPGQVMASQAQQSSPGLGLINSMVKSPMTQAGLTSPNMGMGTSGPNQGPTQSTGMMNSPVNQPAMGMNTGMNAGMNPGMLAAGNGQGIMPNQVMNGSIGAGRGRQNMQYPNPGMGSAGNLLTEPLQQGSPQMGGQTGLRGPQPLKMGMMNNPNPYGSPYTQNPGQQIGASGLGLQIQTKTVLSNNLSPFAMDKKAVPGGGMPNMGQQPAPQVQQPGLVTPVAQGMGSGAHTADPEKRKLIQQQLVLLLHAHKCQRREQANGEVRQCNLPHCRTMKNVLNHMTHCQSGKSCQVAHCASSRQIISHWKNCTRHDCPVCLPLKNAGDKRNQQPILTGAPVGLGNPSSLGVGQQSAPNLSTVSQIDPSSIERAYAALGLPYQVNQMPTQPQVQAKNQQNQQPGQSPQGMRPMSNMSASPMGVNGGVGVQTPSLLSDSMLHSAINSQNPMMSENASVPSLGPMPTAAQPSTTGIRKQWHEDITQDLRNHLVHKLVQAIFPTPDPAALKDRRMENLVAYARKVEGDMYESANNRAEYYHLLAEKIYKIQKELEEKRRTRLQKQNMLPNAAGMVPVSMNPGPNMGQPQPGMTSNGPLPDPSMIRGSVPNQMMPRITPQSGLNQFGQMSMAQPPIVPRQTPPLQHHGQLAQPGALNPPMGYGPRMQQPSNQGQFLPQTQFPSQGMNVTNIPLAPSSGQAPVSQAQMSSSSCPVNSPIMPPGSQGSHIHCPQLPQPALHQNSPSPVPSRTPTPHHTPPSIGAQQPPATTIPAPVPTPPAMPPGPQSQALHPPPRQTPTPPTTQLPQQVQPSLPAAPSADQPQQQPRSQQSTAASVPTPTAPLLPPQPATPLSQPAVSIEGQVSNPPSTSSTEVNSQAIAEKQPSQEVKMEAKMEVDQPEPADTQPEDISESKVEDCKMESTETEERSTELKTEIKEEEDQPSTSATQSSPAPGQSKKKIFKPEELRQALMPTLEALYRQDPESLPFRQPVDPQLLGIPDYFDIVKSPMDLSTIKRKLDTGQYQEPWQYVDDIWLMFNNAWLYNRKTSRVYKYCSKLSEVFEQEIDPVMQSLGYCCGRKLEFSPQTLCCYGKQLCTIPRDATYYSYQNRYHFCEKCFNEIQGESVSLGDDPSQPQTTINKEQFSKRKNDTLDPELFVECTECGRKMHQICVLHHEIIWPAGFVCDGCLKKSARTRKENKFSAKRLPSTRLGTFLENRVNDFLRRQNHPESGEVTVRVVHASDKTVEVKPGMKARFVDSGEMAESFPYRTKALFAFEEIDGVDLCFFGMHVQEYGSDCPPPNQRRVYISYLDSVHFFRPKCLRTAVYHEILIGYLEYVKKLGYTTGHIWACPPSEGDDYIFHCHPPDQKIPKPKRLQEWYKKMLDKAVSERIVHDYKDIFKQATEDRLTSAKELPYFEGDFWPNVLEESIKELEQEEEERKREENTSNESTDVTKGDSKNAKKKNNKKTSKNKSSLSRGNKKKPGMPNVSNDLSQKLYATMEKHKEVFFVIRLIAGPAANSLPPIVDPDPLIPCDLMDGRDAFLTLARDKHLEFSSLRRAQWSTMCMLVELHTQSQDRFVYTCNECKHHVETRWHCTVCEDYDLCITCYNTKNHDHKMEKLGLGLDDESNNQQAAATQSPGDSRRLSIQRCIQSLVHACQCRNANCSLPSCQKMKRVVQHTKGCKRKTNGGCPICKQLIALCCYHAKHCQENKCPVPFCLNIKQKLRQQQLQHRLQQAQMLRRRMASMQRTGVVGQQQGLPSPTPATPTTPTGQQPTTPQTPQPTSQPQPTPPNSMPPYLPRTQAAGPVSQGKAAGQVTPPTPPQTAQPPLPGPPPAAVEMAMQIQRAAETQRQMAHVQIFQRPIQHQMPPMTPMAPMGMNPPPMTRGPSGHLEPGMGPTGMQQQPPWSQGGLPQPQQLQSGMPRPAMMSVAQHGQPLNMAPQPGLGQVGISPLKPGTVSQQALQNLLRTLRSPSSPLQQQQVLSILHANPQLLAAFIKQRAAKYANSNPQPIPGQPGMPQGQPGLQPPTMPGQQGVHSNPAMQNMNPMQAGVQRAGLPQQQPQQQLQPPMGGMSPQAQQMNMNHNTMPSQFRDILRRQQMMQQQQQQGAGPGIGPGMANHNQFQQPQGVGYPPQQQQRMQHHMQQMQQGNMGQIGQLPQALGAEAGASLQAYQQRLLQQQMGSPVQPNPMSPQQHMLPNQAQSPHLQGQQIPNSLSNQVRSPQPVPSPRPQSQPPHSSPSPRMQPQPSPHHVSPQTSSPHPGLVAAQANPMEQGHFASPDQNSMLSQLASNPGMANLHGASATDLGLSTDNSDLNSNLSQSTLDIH
Sequence of MYST3 (Q92794 whole entry, species assumed): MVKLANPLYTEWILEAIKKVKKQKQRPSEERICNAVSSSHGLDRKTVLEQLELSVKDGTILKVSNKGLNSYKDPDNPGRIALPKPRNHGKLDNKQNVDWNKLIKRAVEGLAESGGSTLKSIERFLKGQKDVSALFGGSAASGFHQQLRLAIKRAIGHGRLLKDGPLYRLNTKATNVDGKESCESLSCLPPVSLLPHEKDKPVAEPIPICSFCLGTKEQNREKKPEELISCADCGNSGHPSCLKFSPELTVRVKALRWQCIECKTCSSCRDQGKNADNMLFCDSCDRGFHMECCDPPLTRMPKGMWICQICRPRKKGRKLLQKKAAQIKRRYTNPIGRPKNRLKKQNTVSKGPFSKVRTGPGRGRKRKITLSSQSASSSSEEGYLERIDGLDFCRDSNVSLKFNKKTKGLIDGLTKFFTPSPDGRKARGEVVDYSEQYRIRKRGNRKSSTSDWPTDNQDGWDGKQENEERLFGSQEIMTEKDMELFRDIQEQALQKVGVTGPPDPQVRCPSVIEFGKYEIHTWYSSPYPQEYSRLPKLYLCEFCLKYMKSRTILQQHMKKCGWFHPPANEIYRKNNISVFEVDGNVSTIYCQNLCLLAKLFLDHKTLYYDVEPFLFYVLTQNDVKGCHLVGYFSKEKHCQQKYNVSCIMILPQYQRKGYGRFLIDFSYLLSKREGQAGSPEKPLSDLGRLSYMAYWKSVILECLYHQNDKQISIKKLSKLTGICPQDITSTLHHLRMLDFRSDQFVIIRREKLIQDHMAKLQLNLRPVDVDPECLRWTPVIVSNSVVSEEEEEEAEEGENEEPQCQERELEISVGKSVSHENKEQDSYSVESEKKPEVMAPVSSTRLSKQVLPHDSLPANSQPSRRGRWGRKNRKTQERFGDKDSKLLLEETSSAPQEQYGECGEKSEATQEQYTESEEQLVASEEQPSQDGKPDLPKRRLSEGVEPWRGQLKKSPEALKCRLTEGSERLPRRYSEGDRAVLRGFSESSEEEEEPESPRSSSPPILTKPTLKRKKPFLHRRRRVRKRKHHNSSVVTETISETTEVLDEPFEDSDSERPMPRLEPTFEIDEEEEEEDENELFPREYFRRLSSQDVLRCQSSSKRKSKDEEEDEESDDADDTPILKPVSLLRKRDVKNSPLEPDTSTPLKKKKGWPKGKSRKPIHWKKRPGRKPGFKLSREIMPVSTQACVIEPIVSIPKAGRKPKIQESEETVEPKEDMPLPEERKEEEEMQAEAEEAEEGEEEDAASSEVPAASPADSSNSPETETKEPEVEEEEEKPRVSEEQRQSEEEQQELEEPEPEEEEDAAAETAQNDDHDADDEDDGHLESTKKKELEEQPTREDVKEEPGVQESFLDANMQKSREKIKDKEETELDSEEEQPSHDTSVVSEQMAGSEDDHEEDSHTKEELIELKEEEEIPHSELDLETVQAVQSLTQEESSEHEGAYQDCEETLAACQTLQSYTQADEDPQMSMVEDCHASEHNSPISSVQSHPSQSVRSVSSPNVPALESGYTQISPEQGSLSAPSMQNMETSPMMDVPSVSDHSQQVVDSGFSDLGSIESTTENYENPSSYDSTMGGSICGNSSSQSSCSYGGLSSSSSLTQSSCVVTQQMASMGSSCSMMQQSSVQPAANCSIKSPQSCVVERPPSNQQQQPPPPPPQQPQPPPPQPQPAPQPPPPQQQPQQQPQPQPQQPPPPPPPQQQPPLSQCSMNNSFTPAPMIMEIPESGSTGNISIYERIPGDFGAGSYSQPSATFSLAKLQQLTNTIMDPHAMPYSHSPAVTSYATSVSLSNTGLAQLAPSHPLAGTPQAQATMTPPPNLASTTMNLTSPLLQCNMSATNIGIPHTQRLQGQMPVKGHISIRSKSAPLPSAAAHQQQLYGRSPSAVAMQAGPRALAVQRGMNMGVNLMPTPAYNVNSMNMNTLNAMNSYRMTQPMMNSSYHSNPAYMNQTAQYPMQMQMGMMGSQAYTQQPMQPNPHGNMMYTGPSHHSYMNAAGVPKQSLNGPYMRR

Structure (SMILES) | selectivity over BRD4 for CBP/p300 (CBP/p300 over BRD4) [fold] | Kd (CBP/p300 [1]) [nM] | Kd (CBP/p300 [2]) [nM] | HATs Activity (%) (HAT1; 1µM) | HATs Activity (%) (HAT1; 10µM) | combination effect with BAY-876 across the three cell lines (three TNBC lines) | viability in combination with BAY-876 (three TNBC lines) | HATs Activity (%) (GCN5L2; 1µM) | HATs Activity (%) (GCN5L2; 10µM) | HATs Activity (%) (MYST3; 1µM) | HATs Activity (%) (MYST3; 10µM) | HATs Activity (%) (EP300; 1µM) | HATs Activity (%) (EP300; 10µM) | HATs Activity (%) (MYST1; 1µM) | HATs Activity (%) (MYST1; 10µM)
CNC(=O)N1CCc2c(c(N3CCCc4cc(-c5cnn(C)c5)c(C(F)F)cc43)nn2C2CCOCC2)C1 [GNE-781] | 650 | 6.2 | 0.94 | – | – | – | – | – | – | – | – | – | – | – | –
CCn1cc(-c2cccc(C(F)(F)F)c2)c2sc(C(=N)NC3CCS(=O)(=O)CC3)cc2c1=O [I-BRD9] | – | – | – | 103 | 101 | efficacy in only one of the three tested TNBC lines | significant decrease in viability | 104 | 102 | 101 | 99 | 96 | 99 | 104 | 104
